Measurements as given in US6642224B1, “Diazepan derivatives or salts thereof” (Yamanouchi Pharmaceutical Co., Ltd., priority 2000, dated 2003).

Columns and labels:
human factor Xa = target: T1, human factor Xa (Homo sapiens, UniProt P00742); assay: Test on measurement of coagulation time by human activated blood coagulation factor X; type: biochemical; settings: human blood plasma; concentration by which the coagulation time is prolonged 2-fold
T1 construct: purchased Enzyme Research Labs
Method: 1) Test on Measurement of Coagulation Time by Human Activated Blood Coagulation Factor X
To 90 μl of human blood plasma were added 10 μl of a drug or a physiological saline and 50 μl of human factor Xa (Enzyme Research Labs), incubation was carried out at 37° C. for 3 minutes, 100 μl of 20 mM CaCl2 previously warmed at 37° C. were added and the time until coagulation was measured by a coagulo-meter (KC10 of Amelung). With regard to the human blood plasma, each 45 ml of blood were collected from vein of elbow of six healthy persons using a syringe in which 5 ml of 3.8% sodium citrate were contained and centrifuged at 4° C. for 15 minutes at 3,000 rpm and the separated blood plasma was pooled and frozen, then thawed before use. With regard to the human factor Xa, the concentration by which the coagulation time when a physiological saline (control) was added was about 30 to 40 seconds was selected. A CT2 value (concentration by which the coagulation time is prolonged to an extent of 2-fold) was determined by plotting the drug concentrations and relative value (fold) of the coagulation time to the control, followed by subjecting to linear regression.

bovine thrombin = target: T2, bovine thrombin (Bos taurus, UniProt P00735); assay: Test on measurement of coagulation time by bovine thrombin; type: biochemical; settings: human blood plasma; concentration by which the coagulation time is prolonged 2-fold
T2 construct: 500 units of Thrombin (derived from bovine; Mochida Pharmaceutical); purchased Mochida Pharmaceutical
Method: 2) Test on Measurement of Coagulation Time by Bovine Thrombin
To 50 μl of human blood plasma was added 50 μl of a drug or a physiological saline, incubation was carried out at 37° C. for 3 minutes, 50 μl of thrombin (500 units of Thrombin (derived from bovine; Mochida Pharmaceutical) previously warmed at 37° C. was added and the time until coagulation was measured by a coagulo-meter (KC10 of Amelung). With regard to the human blood plasma, each 45 ml of blood was collected from vein of elbow of six healthy persons using a syringe in which 5 ml of 3.8% sodium citrate was contained and centrifuged at 4° C. for 15 minutes at 3,000 rpm and the separated blood plasma was pooled and frozen, then thawed before use. With regard to the thrombin, the concentration by which the coagulation time when a physiological saline (control) was added was about 20 seconds was selected. A CT2 value (concentration by which the coagulation time is prolonged to an extent of 2-fold) was determined by plotting the drug concentrations and relative value (fold) of the coagulation time to the control, followed by subjecting to linear regression.

[1] = Test on ex vivo measurement of coagulation time in cynomolgus monkeys (oral administration); settings: male cynomolgus monkeys, po 10 mg/kg, as compared with control (plasma without administration of a drug)
Method: (§1) a) Extrinsic Coagulation Time (PT)
(§2) Ortho Brain Thromboplastin (54 mg/vial; a freeze-dried preparation; Ortho-Clinical Diagnostics) was dissolved in 2.5 ml of Milli-Q water and preliminarily warmed at 37° C. The above-separated blood plasma (50 μl) was warmed at 37° C. for 1 minute, 50 μl of the above-mentioned thromboplastin solution was added and the coagulation time was measured. Amelung KC10A was used for the measurement of the coagulation time.
(§3) b) Intrinsic Coagulation Time (APTT)
(§4) To 50 μl of the above blood plasma was added 50 μl of Hemoliance Thrombosil I (DIA-IATRON), the mixture was warmed at 37° C. for 3 minutes, 50 μl of a 20 mM CaCl2 solution previously warmed at 37° C. were added and the coagulation time was measured. KC10A manufactured by Amelung was used for the measurement of the coagulation time.
5) Test on ex vivo Measurement of Coagulation Time in Cynomolgus Monkeys (Oral Administration) […]

[2] = Test on ex vivo measurement of coagulation time in mice (oral administration); settings: male ICR mouse, po 100 mg/kg, as compared with control (plasma without administration of a drug)
Method: 4) Test on ex vivo Measurement of Coagulation Time in Mice (Oral Administration)
Using the resulting blood plasma, extrinsic coagulation time (PT) and intrinsic coagulation time (APTT) were measured in accordance with the following methods a) and b).
as §1, §2, §3, §4
Dose dependency of and time-course changes in the anticoagulation action were also examined by changing the administration dose or the blood collection time.

T1 sequence (P00742 235-488 limits assumed): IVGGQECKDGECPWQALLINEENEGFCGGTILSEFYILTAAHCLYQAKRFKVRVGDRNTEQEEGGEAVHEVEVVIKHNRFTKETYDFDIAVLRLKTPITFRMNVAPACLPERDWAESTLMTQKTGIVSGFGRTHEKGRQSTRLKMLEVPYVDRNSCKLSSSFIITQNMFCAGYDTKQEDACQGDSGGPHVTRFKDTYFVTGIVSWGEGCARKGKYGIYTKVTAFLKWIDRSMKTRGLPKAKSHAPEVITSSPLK
T1 sequence (P00742 41-179 partner limits assumed): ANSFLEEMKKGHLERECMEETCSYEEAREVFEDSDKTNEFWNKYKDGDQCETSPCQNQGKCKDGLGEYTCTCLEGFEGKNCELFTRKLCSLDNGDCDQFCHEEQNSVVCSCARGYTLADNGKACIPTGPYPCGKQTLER

Compound	Test on measurement of coagulation time by human activated blood coagulation factor X (CT2) (human factor Xa) [µM]	Test on measurement of coagulation time by bovine thrombin (CT2) (bovine thrombin) [µM]	prolongation of extrinsic coagulation time (PT) [1]	prolongation of intrinsic coagulation time (APTT) [1]	prolongation of extrinsic coagulation time (PT) [2]	prolongation of intrinsic coagulation time (APTT) [2]
COc1ccc(C(=O)Nc2cccc(OCCO)c2NC(=O)c2ccc(N3CCCN(C)CC3)cc2)cc1.Cl [Example 39, 3-(2-hydroxyethoxy)-N^1-(4-methoxybenzoyl)-N^2-[4-(4-methyl-1,4-diazepan-1-yl)benzoyl]-1,2-phenylenediamine hydrochloride]	1.53	>100				
CN1CCCN(c2ccc(C(=O)Nc3cc(C(=O)O)ccc3CCc3cccc(C(=N)N)c3)cc2)CC1.Cl [Example 5]	0.10	>100				
COc1ccc(NC(=O)c2cccc(O)c2NC(=O)c2ccc(N3CCCN(C)CC3)cc2)cc1.Cl [Example 9, 3-hydroxy-4′-methoxy-2-{[4-(4-methyl-1,4-diazapan-1-yl)benzoyl]amino}benzanilide hydrochloride]	1.71	>100				
COc1ccc(C(=O)Nc2ccc(O)cc2NC(=O)c2ccc(N(C)C)cc2)cc1 [Control 2, reference compound]	11.3					
CN1CCCN(c2ccc(C(=O)Nc3c(O)cccc3C(=O)Nc3ccc(F)cc3)cc2)CC1.Cl [Example 11]	1.33	>100				
COc1ccc(C(=O)Nc2cccc(O)c2NC(=O)c2ccc(N3CCCN(c4ccncc4)CC3)cc2)cc1.Cl [Example 32]	1.41	>100				
CN1CCCN(c2ccc(C(=O)Nc3cc(C(=O)O)ccc3COc3cccc(C(=N)N)c3)cc2)CC1.Cl [Example 3]			twice or more	twice or more	twice or more	twice or more
COc1ccc(C(=O)Nc2ccccc2NC(=O)c2ccc(C3CCNCC3)cc2)cc1 [Control 1, reference compound]	17.0	>100				
